The results in this text go back to publication PMC4368451 (Cancer chemotherapy and pharmacology, 2015).

Data set [1] relates to A549 non-small cell lung carcinoma xenograft. As to the kind of experiment: A549 xenograft model. The settings on record: for TGI % (tumor growth inhibition): 5 mg/kg i.p. every other day for 13 days, day 23, relative to control; for tumor growth: 5 mg/kg i.p. every other day for thirteen days. It is filed as in vivo, Female athymic NCr-nu/nu nude mice.
The test system of another data set is A549 tumor. It is filed as in vivo, Female athymic NCr-nu/nu nude mice. The conditions noted are these: 5 mg/kg i.p. on four consecutive days.
The subject of data set [2] is SW620 (colorectal adenocarcinoma) cells. As to the kind of experiment: Cell cycle distribution. The settings on record: SW620, 24 hours. It is filed as cell-based.
The nature of data set [3]: Prodrug processing in plasma or whole blood. It is filed as in vitro ADME.

Regarding `CCCCCCCC(=O)SCC/C=C/[C@@H]1CC(=O)NCc2nc(cs2)C2=N[C@@](C)(CS2)C(=O)N[C@@H](C(C)C)C(=O)O1` [Largazole], in data set [1], the “TGI % (tumor growth inhibition)” value is recorded as 32% and the “tumor growth” value is reported as “tumor growth rate was slower”. Moreover, in data set [1] (listed as Larg.), the “TGI % (tumor growth inhibition)” value was 32%. Further, in the data set on A549 tumor, the “acetylated H3 and H4 in tumor lysates (western blot) relative to control” value was “increased acetylation relative to control”. In data set [2], the “cell cycle dose dependence” value is “clear switch from G1 to G2 arrest with increasing concentration” and the “concentration for G2 arrest” value is on record as greater than 50 nM. Also, the “prodrug level after room temperature incubation in plasma or whole blood” value in data set [3] is on record as “< LLOQ after ten minutes”.
Regarding Largazole thiol, the “tumor growth” value in data set [1] was “tumor growth rate was slower”.
